Laboratory results as given in PubChem BioAssay (NCI).
Where “and” joins values, the source holds several entries; their conditions need not be identical. Equal values may be shown once.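 Cells were grown in 96-well plates and exposed to each compound for 48 hours at five concentrations; endpoints were interpolated linearly between bracketing concentrations, or set to the highest concentration if not reached. GI50: concentration for 50% inhibition of growth. At the TGI there is no net growth.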

What was measured:
Assay in all cases: growth of human tumour cells (NCI), 48 h
A498 renal = tested on: A498 renal
BT-549 breast = tested on: BT-549 breast
CAKI-1 renal = tested on: CAKI-1 renal
COLO 205 colon = tested on: COLO 205 colon
LOX IMVI melanoma = tested on: LOX IMVI melanoma
M14 melanoma = tested on: M14 melanoma
MALME-3M melanoma = tested on: MALME-3M melanoma
MCF7 breast = tested on: MCF7 breast
NCI-H522 lung = tested on: NCI-H522 lung
OVCAR-3 ovarian = tested on: OVCAR-3 ovarian
OVCAR-4 ovarian = tested on: OVCAR-4 ovarian
RPMI-8226 leukemia = tested on: RPMI-8226 leukemia
SNB-19 CNS = tested on: SNB-19 CNS
UACC-257 melanoma = tested on: UACC-257 melanoma

SMILES | TGI (A498 renal) [µM] | TGI (BT-549 breast) [µM] | TGI (CAKI-1 renal) [µM] | TGI (COLO 205 colon) | TGI (LOX IMVI melanoma) [µM] | TGI (M14 melanoma) [µM] | TGI (MALME-3M melanoma) [µM] | TGI (MCF7 breast) [µM] | TGI (NCI-H522 lung) [µM] | TGI (OVCAR-3 ovarian) [µM] | TGI (OVCAR-4 ovarian) [µM] | TGI (RPMI-8226 leukemia) [µM] | TGI (SNB-19 CNS) [µM] | TGI (UACC-257 melanoma) [µM] | GI50 (MALME-3M melanoma) [µM] | GI50 (MCF7 breast) [µM] | GI50 (NCI-H522 lung) [nM] | GI50 (OVCAR-3 ovarian) [µM] | GI50 (RPMI-8226 leukemia) [µM] | GI50 (UACC-257 melanoma) [µM]
CC(=O)N1CC[N+](C)(CCCCN2c3ccccc3Sc3cc(N=[N+]=[N-])ccc32)CC1 | > 100 | > 100 | > 100 | > 100 µM | > 100 | > 100 | > 100 | > 100 | > 100 | > 100 | > 100 | > 100 | > 100 | > 100 | – | – | – | – | – | –
Clc1ccc2c(c1)CC1C[N+]3=C(CCCC3)C1=C2 (configuration not stated) | > 100 | > 100 | > 100 | > 100 µM | > 100 | > 100 | > 100 | > 100 | > 100 | > 100 | > 100 | – | > 100 | > 100 | – | – | – | – | – | –
COc1cc(C2c3[nH]c4ccc(F)cc4c3C[C@H]3COC(=O)N23)cc(OC)c1O (some centres not stated) | 25.6 | > 100 | 44.7 | 23.7 µM | 31.3 | 43.8 | 55.7 | > 100 | 35.5 | 56 | 79.7 | > 100 | > 100 | > 100 | – | – | – | – | – | –
Cc1nc(N)c(N2CCN(Cc3ccccc3)CC2)c(=O)[nH]1 | > 100 | > 100 | – | > 100 µM | > 100 | > 100 | > 100 | > 100 | > 100 | > 100 | – | > 100 | > 100 | > 100 | – | – | – | – | – | –
COc1cc(CNC(=O)[C@H](Cc2ccc(O)cn2)NC(C)=O)cc(OC)c1 | > 100 | > 100 | > 100 | > 100 µM | > 100 | > 100 | > 100 | > 100 | > 100 | > 100 | > 100 | > 100 | > 100 | > 100 | – | – | – | – | – | –
BrCCC[P+](c1ccccc1)(c1ccccc1)c1ccccc1 | > 100 | > 100 | > 100 | 4.16 µM | 16.8 | > 100 | > 100 | > 100 | > 27.5 | 38.6 | > 100 | > 100 | > 100 | 48.3 | – | – | – | – | – | –
COc1cc(-c2c3c([nH]c(=O)c2C#N)-c2cc([N+](=O)[O-])ccc2CCC3)cc(OC)c1OC | 66.9 | 61.3 | 87.9 | 43.3 µM | > 100 | > 100 | 73.9 | 44.5 | 59 | 46.3 | > 100 | 52.1 | > 100 | > 100 | – | – | – | – | – | –
O=C1NC(N/N=C/c2ccccc2)=N/C1=C\c1cccs1 | 28 | 33.6 | 33.3 | 19.9 µM | 23.4 | > 100 | 27.8 | 46.5 | 5.61 | 33.9 | > 68.9 | > 41 | > 87.3 | > 100 | – | – | – | – | – | –
COc1cc(S(=O)(=O)Nc2ccc(-c3csc(N4C(=O)C(C)SC4c4ccccc4O)n3)cc2)ccc1Cl (configuration not stated) | > 100 | > 100 | > 100 | 57 µM | > 100 | > 100 | 35.5 | > 100 | 37 | > 100 | – | > 100 | > 100 | – | – | – | – | – | – | –
CC(C)/C(Cl)=N\OC(=O)Nc1ccc(F)c([N+](=O)[O-])c1 | 41.7 | 27 | 3.27 | 4.36 µM | 10.7 | > 32.4 | 3 | > 58.1 | 2.45 | 27.2 | 8.99 | 4.87 | 30.6 | 33.5 | – | – | – | – | – | –
CCOC(=O)NC(NNc1ccc([N+](=O)[O-])cc1[N+](=O)[O-])(C(F)(F)F)C(F)(F)F | 73 | > 100 | > 100 | 29.9 µM | > 100 | > 100 | > 100 | > 100 | 77 | > 100 | – | 47.4 | > 100 | > 100 | – | – | – | – | – | –
COc1cc(C=Nc2ccc(S(N)(=O)=O)cc2)cc(OC)c1 | > 50 | > 50 | > 50 | > 50 µM | > 50 | > 50 | > 50 | > 50 | – | > 50 | > 50 | > 50 | > 50 | > 50 | – | – | – | – | – | –
CCOC(=O)/C=C(\C(=O)OCC)n1cnc2c(N)ncnc21 | 17.7 | 27.3 | 2.86 | 4.6 µM | 11.9 | 22.7 | 15.8 | 11.9 | 6.09 | 21.4 | > 48.7 | 5.4 | 30 | 27.8 | – | – | – | – | – | –
COc1ccc(N=Nc2c(C)c(C#N)c(=S)n(C3OC(COC(C)=O)C(OC(C)=O)C(OC(C)=O)C3OC(C)=O)c2-c2ccccc2)cc1 (configuration not stated) | 7.09 | 17.6 | 21.3 | 22.9 µM | 17.9 | 10.7 | 29.9 | 17.5 | – | 31.1 | 12.1 | > 100 | 24.2 | 75.8 | – | – | – | – | – | –
COc1cc(/C=C/c2sc3ccccc3[n+]2C)ccc1N(C)C | > 100 | 3.7 | > 100 | 2.76 µM and 2.86 µM | 31.9 | 27.1 | 19.8 | 19.5 | 15.8 | 13 | 40.1 | 16.2 | 26.8 | 22.9 | 5.85 | 6.78 | 467 | 3.15 | 3.15 | 8.32
c1ccc2c(c1)CCN1CCc3c([nH]c4ccccc34)C21 (configuration not stated) | 54.5 | > 100 | > 100 | 37.8 µM | 53.1 | 34 | 38.3 | > 100 | 66 | 66.7 | > 100 | 55.1 | > 100 | 91.6 | – | – | – | – | – | –
